According to patent US12516295B2, “Generation of pancreatic progenitor cells and beta cells from human pluripotent stem cells” (The Penn State Research Foundation, priority 2018, dated 2026):

How the values were obtained:
H1 hESCs = assay: Growth-factor-free differentiation of hPSCs to SOX17+ DE cells, SOX17 expression by flow cytometry; format: cell-based, human; details: for effect on DE differentiation (result in words): H1 hESCs differentiated with CH, CH+DM or CH+A83-01, day 4 SOX17 by flow cytometry (FIG. 1F); for percentage of cells expressing SOX17: flow cytometry (FIG. 1C); for SOX17+ cells: H1 hESCs, dynamics (FIG. 1E; CH in presence or absence of DM)
Protocol: (§1) FIG. 1. Growth-factor-free differentiation of SOX17+ DE cells from hPSCs via CH and DM treatment. (A) Human 19-9-11 iPSCs were treated with 6 μM CH at day 0. After treatment, cells were collected from 3 to 21 hours (T) and RNA-seq was performed. The bars for each set from left to right are: T0, T3, T6, T9, T12, T15, T18, T21. (B) Schematic of protocol for defined, growth-factor-free differentiation of hPSCs to SOX17+ cells via treatment with CH and DM. (C-D) H1 hESCs were cultured as indicated in 2B with 1 μM DM plus different CH concentration, ranging from 2 to 10 μM. (C) On day 4 of differentiation, cells were analyzed for SOX17 expression by flow cytometry. (D) Cells were immunostained with a SOX17 antibody on day 4 of differentiation under 6 μM CH plus 1 μM DM treatment. (E) H1 hESCs were differentiated with CH in the presence or absence of DM. From day 1 to day 4, cells were analyzed for SOX17 expression by flow cytometry. (F) H1 hESCs were differentiated with CH, CH plus DM or CH plus A83-01. On day 4 of differentiation, cells were analyzed for SOX17 expression by flow cytometry.
Stage 1: On day 0, medium was changed with RPMI supplemented with 1 μM Dorsomorphin (DM) and 2-10 μM CHIR99021(CH). At day 1-4, medium was changed with RPMI supplemented with B-27 without insulin.
Cells were dissociated into single cells with Accutase for 10 min and then fixed with 1% paraformaldehyde for 30 min at room temperature and stained with primary and secondary antibodies in PBS plus 0.1% Triton X-100 and 0.5% BSA. Data were collected on a BD ACCURI C6 PLUS flow cytometer (BD Biosciences) and analyzed using FlowJo 10. FACS gating was based on the corresponding isotype antibody control.
Here we describe a differentiation protocol without using any growth factors. We first initiated DE differentiation by treating hPSCs with CH+DM. To determine optimal CH concentration for DE differentiation, H1 cells were treated by 2 to 10 μM CH in RPMI for 24 hours, followed by 3 days culture in RPMI with 2% B-27 minus insulin supplement. We analyzed the percentage of SOX17+ cells on day 4 of differentiation via flow cytometry. […] The optimal DE differentiation was achieved when hPSCs were treated by 4 or 6 μM CH (FIG. 1C). On day 4, 85% of cells expressing SOX17 when cells were treated with 6 μM CH plus 1 μM DM, whereas the percentage of cells expressing SOX17 decreased to 20% when treated with 10 μM CH plus 1 μM DM (FIG. 1C). […] Next, the dynamics of DE differentiation was investigated by analyzing SOX17 expression from day 1 to day 4. During differentiation, SOX17+ cells increased from 0% on day 1 to 78% on day 4, indicating DE was gradually developed (FIG. 1E). Furthermore, to evaluate whether our novel DE differentiation protocol depends on endogenous TGFbeta pathway, we differentiated H1 hESCs with CH, CH+DM, and CH+A83-01 (a TGFbeta inhibitor).

19-9-11 iPSCs = assay: RNA-seq expression profile during CH induced differentiation; format: cell-based, human; details: 6 μM CH
Protocol: as §1
To understand RNA expression profile during CH induced differentiation, we collected cells following CH treatment every three hours for a total of eight different time points after differentiation (FIG. 1A).

Compound	effect on DE differentiation (result in words) (H1 hESCs)	Sox17+ cells generated (H1 hESCs; 10 μM CH treatment (discussion))	Sox17+ cells generated (H1 hESCs; 4 or 6 μM CH treatment (discussion))	DE differentiation (result in words) (H1 hESCs; H1 cells, 2 to 10 μM CH in RPMI for 24 hours, SOX17+ cells on day 4)	percentage of cells expressing SOX17 (H1 hESCs; H1 cells, day 4, 6 μM CH plus 1 μM DM)	percentage of cells expressing SOX17 (H1 hESCs; H1 cells, day 4, 10 μM CH plus 1 μM DM)	SOX17+ cells (H1 hESCs; day 1 of differentiation)	SOX17+ cells (H1 hESCs; day 4 of differentiation)	Nodal expression (19-9-11 iPSCs; 21 hours after treatment, RNA-seq)	RNA expression of several components in the TGF-β signaling pathway (19-9-11 iPSCs; samples every three hours over 21 hours, RNA-seq (FIG. 1A))
Cc1cccc(-c2nn(C(=S)Nc3ccccc3)cc2-c2ccnc3ccccc23)n1 [A83-01]	abolished DE differentiation	–	–	–	–	–	–	–	–	–
c1cc(-c2cnn3cc(-c4ccc(OCCN5CCCCC5)cc4)cnc23)ccn1 [DM, 6-[4-(2-Piperidin-1-ylethoxy)phenyl]-3-pyridin-4-ylpyrazolo[1,5-a]pyrimidine]	promoted this differentiation	–	–	–	–	–	–	–	–	–
Cc1cnc(-c2cnc(NCCNc3ccc(C#N)cn3)nc2-c2ccc(Cl)cc2Cl)[nH]1 [CH, 6-[[2-[[4-(2,4-Dichlorophenyl)-5-(5-methyl-1H-imidazol-2-yl)-2-pyrimidinyl]amino]ethyl]amino]-3-pyridinecarbonitrile]	–	6%	more than 74%	induced DE differentiation in a dose-dependent manner	85%	20%	0%	78%	upregulated	increased
